Values quoted from earlier work, collected in patent publication US10888120B2, “Non-tobacco nicotine containing article” (Philip Morris Products S.A., priority 2013, dated 2021).

Conditions: "experienced" ENDS users (using ENDS for about 1 year)

## CN1CCCC1c1cccnc1 (stereo not shown) [nicotine]
  plasma nicotine concentration (Cmax): 10.3 ng/mL
